Laboratory results from US12162858B2, “Quinoline derivatives as inhibitors of AXL/MER RTK and CSF1R” (QURIENT CO., LTD., priority 2018, dated 2024).

Assays:
Type in all cases: cell-based
Mer (Ba/F3 cells) = molecular target: T1, Mer (Ba/F3 cells) (Homo sapiens, UniProt Q12866); assay: BaF3 viability assay, Mer-dependent cells; conditions: read-out: Cellular Mer activity by Ba/F3 assay (IC50)
T1 sequence (Q12866 1-999): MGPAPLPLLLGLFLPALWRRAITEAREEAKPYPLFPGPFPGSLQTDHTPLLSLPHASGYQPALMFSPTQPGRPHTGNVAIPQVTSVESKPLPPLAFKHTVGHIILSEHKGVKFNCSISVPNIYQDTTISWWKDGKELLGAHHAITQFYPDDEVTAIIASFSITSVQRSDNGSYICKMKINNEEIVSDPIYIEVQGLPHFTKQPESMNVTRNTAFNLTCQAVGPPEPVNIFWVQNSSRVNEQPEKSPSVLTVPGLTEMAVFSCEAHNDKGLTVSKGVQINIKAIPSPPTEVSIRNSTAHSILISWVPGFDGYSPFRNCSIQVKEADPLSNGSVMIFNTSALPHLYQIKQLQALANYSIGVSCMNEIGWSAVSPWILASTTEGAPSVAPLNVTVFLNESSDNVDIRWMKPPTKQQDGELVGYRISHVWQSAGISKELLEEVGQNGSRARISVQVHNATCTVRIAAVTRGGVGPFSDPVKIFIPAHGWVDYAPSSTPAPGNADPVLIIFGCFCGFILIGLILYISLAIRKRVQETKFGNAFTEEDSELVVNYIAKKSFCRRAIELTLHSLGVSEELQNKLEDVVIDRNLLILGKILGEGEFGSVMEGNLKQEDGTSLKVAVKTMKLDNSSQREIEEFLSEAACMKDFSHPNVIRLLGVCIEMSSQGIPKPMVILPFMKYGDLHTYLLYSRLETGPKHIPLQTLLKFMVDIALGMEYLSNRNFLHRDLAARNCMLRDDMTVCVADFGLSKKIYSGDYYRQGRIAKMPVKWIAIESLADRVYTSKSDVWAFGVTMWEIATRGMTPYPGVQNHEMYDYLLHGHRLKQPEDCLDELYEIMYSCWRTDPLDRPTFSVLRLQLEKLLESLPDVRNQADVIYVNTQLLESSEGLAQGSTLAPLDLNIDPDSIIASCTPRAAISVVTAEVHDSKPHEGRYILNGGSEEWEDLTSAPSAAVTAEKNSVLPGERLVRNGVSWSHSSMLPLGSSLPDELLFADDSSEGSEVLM
Source text: (§1) In this system, IL-3-dependent Ba/F3 cells are modified to express an activated recombinant kinase (in the present case Axl, Mer and CSF1R). Following removal of IL-3, the modified cells are dependent on the activity of the recombinant kinase for survival and proliferation. Inhibition of such kinase(s) through test compounds reduces survival and proliferation of the cells.
(§2) Cell lines were maintained in growth media (GM) consisting of RPMI 1640 supplemented with 10% FBS. Cells in logarithmic-phase growth were harvested and 5,000 cells were distributed into each well of a 384-well plate in 50 μl GM. Parental cells (or experimental assays where specified) were further supplemented with 2 ng/ml IL-3 to support cell growth and survival. Fifty nanoliters of the indicated reference standard or experimental compound were added to appropriate wells (in duplicate) and the cells were cultured for 48 h at 37° C./5% CO2. Viability was determined by adding 10 μl Cell Titer Glo and measuring luminescence, which is reported as relative light units (RLU) measured in counts per second. The following calculations and formulas are used for data analysis using GraphPad Prism software: The curve fitting was made using the Dose response curves-Inhibition.

Axl (Ba/F3 cells) = molecular target: T2, Axl (Ba/F3 cells) (Homo sapiens, UniProt P30530); assay: BaF3 viability assay, Axl-dependent cells; conditions: read-out: Cellular Axl activity by Ba/F3 assay (IC50)
T2 sequence (P30530 1-894): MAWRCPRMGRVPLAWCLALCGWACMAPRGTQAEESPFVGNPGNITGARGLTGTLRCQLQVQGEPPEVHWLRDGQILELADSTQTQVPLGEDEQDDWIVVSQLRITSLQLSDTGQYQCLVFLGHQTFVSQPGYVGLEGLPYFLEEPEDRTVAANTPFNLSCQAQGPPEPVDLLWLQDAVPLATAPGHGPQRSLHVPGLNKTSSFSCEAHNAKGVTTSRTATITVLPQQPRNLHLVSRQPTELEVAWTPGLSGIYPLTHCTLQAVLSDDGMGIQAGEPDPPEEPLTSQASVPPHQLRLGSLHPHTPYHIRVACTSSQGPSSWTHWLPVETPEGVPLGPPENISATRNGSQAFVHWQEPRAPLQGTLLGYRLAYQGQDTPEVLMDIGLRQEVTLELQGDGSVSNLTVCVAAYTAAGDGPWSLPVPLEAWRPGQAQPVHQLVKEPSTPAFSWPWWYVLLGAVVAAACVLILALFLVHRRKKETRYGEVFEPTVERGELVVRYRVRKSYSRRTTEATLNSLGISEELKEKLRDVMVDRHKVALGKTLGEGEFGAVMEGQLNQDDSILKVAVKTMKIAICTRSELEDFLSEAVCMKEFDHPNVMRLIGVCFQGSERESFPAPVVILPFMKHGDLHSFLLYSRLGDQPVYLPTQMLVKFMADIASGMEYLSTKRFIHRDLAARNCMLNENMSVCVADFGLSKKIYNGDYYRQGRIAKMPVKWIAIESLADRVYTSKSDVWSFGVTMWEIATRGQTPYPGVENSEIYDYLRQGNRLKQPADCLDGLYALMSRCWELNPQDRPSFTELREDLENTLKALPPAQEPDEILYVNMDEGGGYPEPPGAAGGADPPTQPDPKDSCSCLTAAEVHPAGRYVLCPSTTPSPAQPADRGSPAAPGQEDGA
Source text: as §1, §2

CSF1R (Ba/F3 cells) = CSF1R (Ba/F3 cells) (Homo sapiens, UniProt P07333); assay: BaF3 viability assay, CSF1R-dependent cells; conditions: read-out: Cellular CSF1R activity by Ba/F3 assay (IC50)
Chain of CSF1R (Ba/F3 cells) (P07333 whole entry, change not shown): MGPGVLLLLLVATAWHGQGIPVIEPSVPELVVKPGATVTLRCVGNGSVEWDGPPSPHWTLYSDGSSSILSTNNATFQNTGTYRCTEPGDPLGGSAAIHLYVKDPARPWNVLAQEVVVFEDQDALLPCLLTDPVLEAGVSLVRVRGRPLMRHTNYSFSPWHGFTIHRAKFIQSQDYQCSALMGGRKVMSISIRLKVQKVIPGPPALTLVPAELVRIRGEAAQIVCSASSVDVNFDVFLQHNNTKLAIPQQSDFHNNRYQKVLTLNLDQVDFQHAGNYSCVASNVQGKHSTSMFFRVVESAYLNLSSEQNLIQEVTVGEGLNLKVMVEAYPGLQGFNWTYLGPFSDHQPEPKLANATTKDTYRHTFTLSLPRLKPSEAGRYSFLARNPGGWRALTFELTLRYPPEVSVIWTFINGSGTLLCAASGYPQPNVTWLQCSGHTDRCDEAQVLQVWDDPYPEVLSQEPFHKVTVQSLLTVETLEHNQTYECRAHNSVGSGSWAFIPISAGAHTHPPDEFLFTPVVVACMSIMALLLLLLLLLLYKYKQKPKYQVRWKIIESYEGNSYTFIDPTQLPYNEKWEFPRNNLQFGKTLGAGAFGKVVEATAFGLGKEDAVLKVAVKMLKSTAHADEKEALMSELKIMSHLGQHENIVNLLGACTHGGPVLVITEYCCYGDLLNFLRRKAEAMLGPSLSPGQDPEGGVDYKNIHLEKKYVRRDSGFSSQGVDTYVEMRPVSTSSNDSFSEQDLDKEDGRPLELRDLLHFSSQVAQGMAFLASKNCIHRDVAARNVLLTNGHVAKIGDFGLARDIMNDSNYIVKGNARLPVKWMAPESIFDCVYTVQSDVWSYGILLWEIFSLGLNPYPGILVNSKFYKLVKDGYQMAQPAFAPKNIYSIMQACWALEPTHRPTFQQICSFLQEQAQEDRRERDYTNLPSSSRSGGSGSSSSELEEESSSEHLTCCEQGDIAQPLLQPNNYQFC
Source text: as §1, §2

Measured: GI50

CCCn1cc(OCC(F)(F)F)c(C(=O)Nc2ccc(Oc3ccnc4cc(OC)c(OC)cc34)cn2)n1 [Compound 7]
< 1000 nM: all assays above

COCCn1cc(OCC(F)(F)F)c(C(=O)Nc2ccc(Oc3ccnc4cc(OC)c(OC)cc34)cn2)n1 [Compound 10]
< 1000 nM: all assays above

CCCn1cc(OCC(F)F)c(C(=O)Nc2ccc(Oc3ccnc4cc(OC)c(OC)cc34)cn2)n1 [Compound 12]
< 1000 nM: all assays above

COc1cc2nccc(Oc3ccc(NC(=O)c4n[nH]cc4OCC(F)(F)F)nc3)c2cc1OC [Compound 16]
< 1000 nM: all assays above

CCn1cc(OCC(F)(F)F)c(C(=O)Nc2ccc(Oc3ccnc4cc(OC)c(OC)cc34)cn2)n1 [Compound 4]
< 1000 nM: all assays above
